Entries after “also recorded” stand apart in the source; their conditions may differ. Read-outs that look alike come from different tables or passages of the source.
What was measured:
[1] = molecular target: T1, human ACAT1 (Homo sapiens, UniProt P35610); assay: In vitro assay of ACAT activity in yeast microsomes expressing human ACAT1 (inhibitor sensitivity); format: biochemical
T1 construct: A cDNA corresponding to the coding region of human ACAT1 flanked by 5 bp of 5' untranslated region and 1 bp of 3' untranslated region; made in house; host or cells: Saccharomyces cerevisiae strain SCY059 (are1 are2 deleted), vector pRS426GP, GAL1/GAL10 promoter; microsomes
T1 sequence (P35610 1-550): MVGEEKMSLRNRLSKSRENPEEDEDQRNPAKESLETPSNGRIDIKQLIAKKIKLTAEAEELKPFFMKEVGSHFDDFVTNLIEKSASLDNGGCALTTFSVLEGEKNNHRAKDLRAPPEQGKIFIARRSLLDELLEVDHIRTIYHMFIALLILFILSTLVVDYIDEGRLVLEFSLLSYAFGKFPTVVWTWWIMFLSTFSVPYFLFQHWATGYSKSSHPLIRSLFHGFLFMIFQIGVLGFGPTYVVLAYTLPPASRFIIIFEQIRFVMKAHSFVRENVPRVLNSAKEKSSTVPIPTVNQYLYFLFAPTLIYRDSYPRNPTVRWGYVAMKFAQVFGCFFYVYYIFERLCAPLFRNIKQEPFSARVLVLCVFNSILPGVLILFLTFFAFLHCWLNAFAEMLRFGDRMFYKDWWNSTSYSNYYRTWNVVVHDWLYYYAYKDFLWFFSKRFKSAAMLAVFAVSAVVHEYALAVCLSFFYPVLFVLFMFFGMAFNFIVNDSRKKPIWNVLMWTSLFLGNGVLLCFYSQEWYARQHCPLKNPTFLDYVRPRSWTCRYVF
Excerpt: (§1) In Vitro Assay of ACAT Activity in Yeast Microsomes. The cDNA inserts of the longest ARGP1 and ARGP2 HepG2 library clones were removed by NotI, EcoRI digestion and ligated into the yeast expression vector pRS426GP which utilizes the galactose inducible GAL1/GAL10 promoter. A cDNA corresponding to the coding region of human ACAT1 flanked by 5 bp of 5' untranslated region and 1 bp of 3' untranslated region, in pRS426GP was described previously (27). Yeast strain, SCY059 (MATα, ade2-1, can1-1, trp1-1, ura3-1, his3-11, 15, leu2-3, 112, metl4Δ14HpaI-SalI,are1ΔNA::HIS3, are2Δ::LEU2 ) with deletions in ARE1 and ARE2, the yeast homologs of human ACAT1 (4), was transformed with the above constructs or pRS426GP using lithium acetate and nucleic acid prototrophy selection (28). […] Culturing of the transformed yeast, induction of expression, microsome isolation, and sterol esterification assays were as described previously […]. In those experiments involving diethylpyrocarbonate (DEPC) to modify histidine residues, a preincubation with 100 μM DEPC was performed as described (2).
(§2) Assay of ACAT activity in ACAT negative yeast transformed with ARGP1 and ARGP2. The ability of ARGP1 and ARGP2 to esterify sterols was assayed in a sterol esterification deficient yeast strain (SCY059) in which the endogenous ARE genes were deleted . […]

[2] = molecular target: T2, ACAT2 (ARGP2) (Homo sapiens, UniProt O75908); assay: In vitro assay of ACAT activity in yeast microsomes expressing ARGP2 (ACAT2) (inhibitor sensitivity); format: biochemical
T2 construct: The cDNA inserts of the longest ARGP1 and ARGP2 HepG2 library clones were removed by NotI, EcoRI digestion and ligated into the yeast expression vector; made in house; host or cells: Saccharomyces cerevisiae strain SCY059 (are1 are2 deleted), vector pRS426GP, GAL1/GAL10 promoter; microsomes
T2 sequence (O75908 1-522): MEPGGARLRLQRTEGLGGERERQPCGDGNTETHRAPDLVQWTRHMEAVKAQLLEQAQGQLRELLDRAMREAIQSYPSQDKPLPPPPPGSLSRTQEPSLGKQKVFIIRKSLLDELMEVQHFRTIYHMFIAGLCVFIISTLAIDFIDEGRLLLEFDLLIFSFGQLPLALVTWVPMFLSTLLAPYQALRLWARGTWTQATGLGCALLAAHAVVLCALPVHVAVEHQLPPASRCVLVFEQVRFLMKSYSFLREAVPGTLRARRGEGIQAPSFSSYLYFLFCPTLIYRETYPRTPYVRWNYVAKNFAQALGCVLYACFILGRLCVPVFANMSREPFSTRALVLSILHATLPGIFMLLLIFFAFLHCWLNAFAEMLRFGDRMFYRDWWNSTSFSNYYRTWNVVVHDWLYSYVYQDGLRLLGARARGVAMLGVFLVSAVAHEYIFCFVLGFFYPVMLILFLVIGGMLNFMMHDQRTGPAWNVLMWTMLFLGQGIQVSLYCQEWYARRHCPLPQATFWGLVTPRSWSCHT
Excerpt: as §1, §2

[3] = test system: incorporation of [14C]-oleate into sterol ester; assay: In vitro microsomal ACAT activity of cDNAs expressed in ACAT-negative yeast SCY059
Excerpt: as §1
Assay of ACAT activity in ACAT negative yeast transformed with ARGP1 and ARGP2. The ability of ARGP1 and ARGP2 to esterify sterols was assayed in a sterol esterification deficient yeast strain (SCY059) in which the endogenous ARE genes were deleted . Microsomes from these yeast, transformed with an expression vector harboring no insert or cDNA inserts for ARGP1, ARGP2, or human ACAT1 were assayed in vitro for the incorporation of [^14 C]-oleate into sterol ester.

## CCOC(=O)OC(=O)OCC [DEPC, diethylpyrocarbonate]
[1]; 100 μm DEPC, ACAT1
  Degree of Inhibition: 80%
[1]; ACAT1 microsomes preincubated with 100 μm DEPC, triplicate
  Active site Modification: Plus DEPC (100 μm) (ACAT activity): 69 +/- 4
[2]; 100 μm DEPC, ACAT2
  Degree of Inhibition: 33%
[2]; ACAT2 microsomes preincubated with 100 μm DEPC, triplicate
  Active site Modification: Plus DEPC (100 μm) (ACAT activity): 30 +/- 1

B1: ACAT1: human acyl Coenzyme A-cholesterol acyltransferase 1 expressed in yeast from cDNA (protein, UniProt P35610 1-550, looked up)
Sterol O-acyltransferase 1: MVGEEKMSLRNRLSKSRENPEEDEDQRNPAKESLETPSNGRIDIKQLIAKKIKLTAEAEELKPFFMKEVGSHFDDFVTNLIEKSASLDNGGCALTTFSVLEGEKNNHRAKDLRAPPEQGKIFIARRSLLDELLEVDHIRTIYHMFIALLILFILSTLVVDYIDEGRLVLEFSLLSYAFGKFPTVVWTWWIMFLSTFSVPYFLFQHWATGYSKSSHPLIRSLFHGFLFMIFQIGVLGFGPTYVVLAYTLPPASRFIIIFEQIRFVMKAHSFVRENVPRVLNSAKEKSSTVPIPTVNQYLYFLFAPTLIYRDSYPRNPTVRWGYVAMKFAQVFGCFFYVYYIFERLCAPLFRNIKQEPFSARVLVLCVFNSILPGVLILFLTFFAFLHCWLNAFAEMLRFGDRMFYKDWWNSTSYSNYYRTWNVVVHDWLYYYAYKDFLWFFSKRFKSAAMLAVFAVSAVVHEYALAVCLSFFYPVLFVLFMFFGMAFNFIVNDSRKKPIWNVLMWTSLFLGNGVLLCFYSQEWYARQHCPLKNPTFLDYVRPRSWTCRYVF
[3]
  In Vitro Microsomal ACAT activity (cholesterol ester formation rate): 340 +/- 76 pmol/minute/μg microsomal prot
[3]; no DEPC preincubation, representative experiment in triplicate
  Active site Modification: Minus DEPC (ACAT activity): 340 +/- 16

B2: ARGP1: ACAT Related Gene Product 1, 488 amino acid protein (SEQ ID NO:1), proposed diacylglycerol acyltransferase (protein)
chain: MGDRGSSRRRRTGSRPSSHGGGGPAAAEEEVRDAAAGPDVGAAGDAPAPAPNKDGDAGVGSGHWELRCHRLQDSLFSSDSGFSNYRGILNWCVVMLILSNARLFLENLIKYGILVDPIQVVSLFLKDPHSWPAPCLVIAANVFAVAAFQVEKRLAVGALTEQAGLLLHVANLATILCFPAAVVLLVESITPVGSLLALMAHTILFLKLFSYRDVNSWCRRARAKAASAGKKASSAAAPHTVSYPDNLTYRDLYYFLFAPTLCYELNFPRSPRIRKRFLLRRILEMLFFTQLQVGLIQQWMVPTIQNSMKPFKDMDYSRIIERLLKLAVPNHLIWLIFFYWLFHSCLNAVAELMQFGDREFYRDWWNSESVTYFWQNWNIPVHKWCIRHFYKPMLRRGSSKWMARTGVFLASAFFHEYLVSVPLRMFRLWAFTGMMAQIPLAWFVGRFFQGNYGNAAVWLSLIIGQPIAVLMYVHDYYVLNYEAPAAEA
[3]; expressed in yeast
  ACAT activity (sterol esterification), result in words: did not display significant ACAT activity; also recorded: failed to detectably esterify cholesterol or ergosterol
[3]; microsomes of transformed yeast SCY059, exogenous cholesterol in Triton WR-1339, three experiments on different preparations
  In Vitro Microsomal ACAT activity (cholesterol ester formation rate): 4 +/- 3 pmol/minute/μg microsomal prot

Reference: US6100077A, “Isolation of a gene encoding diacylglycerol acyltransferase” (priority 1998, dated 2000)
